From ChEMBL document CHEMBL1130105 (J Med Chem, 1997)
pIC50: −log10 of the molar value.

How the values were obtained:
[1] = target: Gastrin/cholecystokinin type B receptor (Cavia porcellus); assay: Inhibition of ligand binding to Cholecystokinin type B receptor from guinea pig cortical membrane.
[2] = target: T1, Cholecystokinin receptor type A (Rattus norvegicus, UniProt P30551); assay: Inhibition of ligand binding to Cholecystokinin type A receptor from rat pancreatic tissue.
T1 sequence (P30551 whole entry): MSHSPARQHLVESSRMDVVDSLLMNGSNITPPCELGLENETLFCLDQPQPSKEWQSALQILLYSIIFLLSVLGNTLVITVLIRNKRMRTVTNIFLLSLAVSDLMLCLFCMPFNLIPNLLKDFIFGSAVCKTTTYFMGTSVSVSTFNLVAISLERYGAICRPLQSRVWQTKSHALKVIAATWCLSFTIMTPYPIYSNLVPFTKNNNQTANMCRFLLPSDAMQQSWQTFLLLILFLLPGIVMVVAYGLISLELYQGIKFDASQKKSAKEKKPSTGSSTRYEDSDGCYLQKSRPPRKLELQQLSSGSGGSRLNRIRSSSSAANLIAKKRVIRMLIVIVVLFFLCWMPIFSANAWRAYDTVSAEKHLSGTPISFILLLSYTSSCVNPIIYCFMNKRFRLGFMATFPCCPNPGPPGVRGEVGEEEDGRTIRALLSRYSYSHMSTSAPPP

SMILES	pIC50 [1]	pIC50 [2]
Cc1cccc(NC(=O)NC2N=C(c3ccccn3)c3ccccc3N(C)C2=O)c1 (configuration not stated)	7.18	
CCCN1C(=O)[C@H](NC(=O)Nc2ccc3c(c2)CCC3)N=C([C@H]2CC(C)(C)CCN2)c2ccccc21		5.40
CCCN1C(=O)[C@H](NC(=O)Nc2cccc(C)c2)N=C([C@H]2CCCCN2C)c2ccccc21		5.68
CCCN1C(=O)[C@H](NC(=O)Nc2cccc(C)c2)N=C([C@H]2CCCCN2)c2ccccc21		5.52
CCCN1C(=O)[C@H](NC(=O)Nc2cccc(C)c2)N=C([C@@H]2CCCCN2)c2ccccc21		5.52
CCN(CC)C(=O)CN1C(=O)C(NC(=O)Nc2cccc(C)c2)N=C(c2ccccn2)c2ccccc21 (configuration not stated)	9.25	
Cc1cccc(NC(=O)N[C@@H]2N=C([C@H]3CCC(C)(C)CCN3)c3ccccc3N(C)C2=O)c1		5.86
CCCN1C(=O)[C@H](NC(=O)Nc2cccc(C)c2)N=C([C@H]2CCC(C)(C)CCN2)c2ccccc21		5.82
CN1C(=O)[C@H](NC(=O)Nc2ccc3c(c2)CCC3)N=C([C@H]2CCC(C)(C)CCN2)c2ccccc21		5.19
CCCN1C(=O)[C@H](NC(=O)Nc2cccc(C)c2)N=C([C@H]2CC(C)(C)CCN2)c2ccccc21		5.51
CCN(CC)C(=O)CN1C(=O)[C@H](NC(=O)Nc2cccc(C)c2)N=C(c2cccc[n+]2C)c2ccccc21		5.76
CCCN1C(=O)[C@H](NC(=O)Nc2cccc(C)c2)N=C([C@H]2CCC(C)(C)CCN2C)c2ccccc21		5.45
